Publication PMC6478823, “A suite of phenotypic assays to ensure pipeline diversity when prioritizing drug-like Cryptosporidium growth inhibitors” (Nature Communications, 2019)
Where “and” joins values, the source holds several entries; their conditions need not be identical. Equal values may be shown once.

Legend:
C. parvum [1] = type: cell-based, Cryptosporidium parvum; settings: compound at EC90; for Invasion Assay: Mean % Inhibition (parasites), Average: average of replicates; for Invasion Assay: Mean % Inhibition (parasites), Replicate 1a: single biological replicate 1; for Invasion Assay: Mean % Inhibition (parasites), Replicate 2a: single biological replicate 2
C. parvum [2] = test: DNA replication assay (EdU incorporation); type: cell-based, Cryptosporidium parvum; settings: compound at EC90; for DNA Synthesis Assay: Mean % Inhibition of EdU-labeling (normalized to parasite numbers), Average: average of replicates; for DNA Synthesis Assay: Mean % Inhibition of EdU-labeling (normalized to parasite numbers), Replicate 1: single replicate 1; for DNA Synthesis Assay: Mean % Inhibition of EdU-labeling (normalized to parasite numbers), Replicate 2: single replicate 2; for DNA Synthesis Assay: Mean % Inhibition of EdU-labeling (normalized to parasite numbers), Replicate 3: single replicate 3
[3] = tested on: C. parvum DMC1 expression; test: Sexual differentiation assay (DMC1 expression); type: cell-based, Cryptosporidium parvum; settings: for Asexual to sexual differentiation: Mean % DMC1 inhibition (normalized to host nuclei), Average: average of replicates; for Asexual to sexual differentiation: Mean % DMC1 inhibition (normalized to host nuclei), Replicate 1a: single replicate 1; for Asexual to sexual differentiation: Mean % DMC1 inhibition (normalized to host nuclei), Replicate 2a: single replicate 2; for Asexual to sexual differentiation: Mean % DMC1 inhibition (normalized to host nuclei), Replicate 3a: single replicate 3; for activity in the DMC1 (sexual development) assay relative to asexual assay: compound added at 48 h, read at 72 h, result in words; for Asexual to sexual differentiation: Mean % DMC1 inhibition (normalized to host nuclei), Replicate 4a: single replicate 4; for Asexual to sexual differentiation: Mean % DMC1 inhibition (normalized to host nuclei), Replicate 5a: single replicate 5; for EC50: inhibition of DMC1 expression from 48 to 72 h, range in brackets, read-out: 48 − 72 h DMC1 (asexual to sexual conversion): EC50
Summary of the method: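 High-content microscopy of infected cells fixed at set times post-infection, stained with anti-DMC1 mAb 1H10G7, Vicia villosa lectin and Hoechst; lectin-positive parasites counted, then DMC1-positive.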

C. parvum [4] = test: Egress, motility, reinvasion assay (PV ratio); settings: compound at EC90; for Egress and Reinvasion Assay: Mean PV ratios (19.5h:6h), Average: average of replicates; for Egress and Reinvasion Assay: Mean PV ratios (19.5h:6h), Replicate 1a: single replicate 1; for Egress and Reinvasion Assay: Mean PV ratios (19.5h:6h), Replicate 2a: single replicate 2; for Egress and Reinvasion Assay: Mean PV ratios (19.5h:6h), Replicate 3a: single replicate 3; for Egress and Reinvasion Assay: Mean PV ratios (19.5h:6h), Replicate 4a: single replicate 4
Description: For quantification of parasitophorous vacuoles over time, HCT-8 cells were grown to greater than 90% confluence in 384-well plates and infected with 11,000 oocysts after triggering excystation.

[5] = compound at asexual EC90, 48-72 h
[6] = yes/no grouping by phenotypic assay result

Compound	Invasion Assay: Mean % Inhibition (parasites), Average (C. parvum [1]) [%]	Invasion Assay: Mean % Inhibition (parasites), Replicate 1a (C. parvum [1]) [%]	Invasion Assay: Mean % Inhibition (parasites), Replicate 2a (C. parvum [1]) [%]	DNA Synthesis Assay: Mean % Inhibition of EdU-labeling (normalized to parasite numbers), Average (C. parvum [2]) [%]	DNA Synthesis Assay: Mean % Inhibition of EdU-labeling (normalized to parasite numbers), Replicate 1 (C. parvum [2]) [%]	DNA Synthesis Assay: Mean % Inhibition of EdU-labeling (normalized to parasite numbers), Replicate 2 (C. parvum [2]) [%]	DNA Synthesis Assay: Mean % Inhibition of EdU-labeling (normalized to parasite numbers), Replicate 3 (C. parvum [2]) [%]	Asexual to sexual differentiation: Mean % DMC1 inhibition (normalized to host nuclei), Average [3, 5] [%]	Asexual to sexual differentiation: Mean % DMC1 inhibition (normalized to host nuclei), Replicate 1a [3, 5] [%]	Asexual to sexual differentiation: Mean % DMC1 inhibition (normalized to host nuclei), Replicate 2a [3, 5] [%]	Asexual to sexual differentiation: Mean % DMC1 inhibition (normalized to host nuclei), Replicate 3a [3, 5] [%]	Egress and Reinvasion Assay: Mean PV ratios (19.5h:6h), Average (C. parvum [4])	Egress and Reinvasion Assay: Mean PV ratios (19.5h:6h), Replicate 1a (C. parvum [4])	Egress and Reinvasion Assay: Mean PV ratios (19.5h:6h), Replicate 2a (C. parvum [4])	activity in the DMC1 (sexual development) assay relative to asexual assay [3]	Asexual to sexual differentiation: Mean % DMC1 inhibition (normalized to host nuclei), Replicate 4a [3, 5] [%]	Asexual to sexual differentiation: Mean % DMC1 inhibition (normalized to host nuclei), Replicate 5a [3, 5] [%]	EC50 [3] [µM]	Egress and Reinvasion Assay: Mean PV ratios (19.5h:6h), Replicate 3a (C. parvum [4])	Egress and Reinvasion Assay: Mean PV ratios (19.5h:6h), Replicate 4a (C. parvum [4])	further results
CN(C)c1ccc(C(=C2C=CC(=[N+](C)C)C=C2)c2ccc(N(C)C)cc2)cc1 [Gentian Violet]	-6.62	-1.27	-12	47.40	62.13	74.23	5.82	34.34	8.16	38.90	55.96	1.37	1.01	1.73	–	–	–	–	–	–	–
O=C(Nc1ccc(Cl)cc1)N1CCN(c2ccc3nncn3n2)CC1 [D-1]	-25.16	-22	-29	23.98	20.68	7.95	36.52	83.01	87.55	90.87	72.73	1.86	1.12	1.70	equal potency before and after 48 h	66.31	89.27	2.4	3.12	1.50	DNA Synthesis Assay: Mean % Inhibition of EdU-labeling (normalized to parasite numbers), Replicate 4 (C. parvum [2]; single replicate 4): 30.78%; 48 - 72 h DMC1 (asexual to sexual conversion): Mean % DMC1 inhibition (normalized to host nuclei) ([3]; D-1 at log conc (µM) 0.16, replicates 1-3 in separate columns): -9.83% and -22.30% and 31.77%; 48 - 72 h DMC1 (asexual to sexual conversion): Mean % DMC1 inhibition (normalized to host nuclei) ([3]; D-1 at log conc (µM) 0.46, replicates 1-3 in separate columns): 54.19% and 44.15% and 54.54%; 48 - 72 h DMC1 (asexual to sexual conversion): Mean % DMC1 inhibition (normalized to host nuclei) ([3]; D-1 at log conc (µM) 0.58, replicates 1-3 in separate columns): 71.57% and 53.72% and 69.21%; 48 - 72 h DMC1 (asexual to sexual conversion): Mean % DMC1 inhibition (normalized to host nuclei) ([3]; D-1 at log conc (µM) 0.71, replicates 1-3 in separate columns): 84.32%; 48 - 72 h DMC1 (asexual to sexual conversion): Mean % DMC1 inhibition (normalized to host nuclei) ([3]; D-1 at log conc (µM) 1.18, replicates 1-3 in separate columns): 94.93% and 94.90% and 95.67%; 48 - 72 h DMC1 (asexual to sexual conversion): Mean % DMC1 inhibition (normalized to host nuclei) ([3]; D-1 at log conc (µM) 1.66, replicates 1-3 in separate columns): 95.75% and 98.23% and 93.36%; 48 - 72 h DMC1 (asexual to sexual conversion): Mean % DMC1 inhibition (normalized to host nuclei) ([3]; D-1 at log conc (µM) -0.14, replicates 1-3 in separate columns): 2.15% and -53.03% and -30.95%; 48 - 72 h DMC1 (asexual to sexual conversion): Mean % DMC1 inhibition (normalized to host nuclei) ([3]; D-1 at log conc (µM) -0.62, replicates 1-3 in separate columns): -16.25% and -49.91% and -40.61%; 48 - 72 h DMC1 (asexual to sexual conversion): Mean % DMC1 inhibition (normalized to host nuclei) ([3]; D-1 at log conc (µM) -1.10, replicates 1-3 in separate columns): -18.85% and -40.36% and -14.22%; Asexual to sexual differentiation: Mean % DMC1 inhibition (normalized to host nuclei), Replicate 6a ([3]; compound at asexual EC90, 48-72 h, single replicate 6): 91.32%
c1ccc(CNc2nc(Nc3ccccc3)nc3ccccc23)cc1 [B-1]	56.43	55	63	-31.43	-48.95	-39.64	-5.71	18.08	32.96	-3.57	17.22	1.58	1.28	1.59	less potent when used during the sexual phases of development	25.70	–	11	1.80	1.65	Invasion Assay: Mean % Inhibition (parasites), Replicate 3a (C. parvum [1]; single biological replicate 3): 42%; Invasion Assay: Mean % Inhibition (parasites), Replicate 4a (C. parvum [1]; single biological replicate 4): 66%; Sporozoite invasion (C. parvum [1]; [6]): yes; DNA synthesis (C. parvum [2]; [6]): no; 48 - 72 h DMC1 (asexual to sexual conversion): Mean % DMC1 inhibition (normalized to host nuclei) ([3]; B-1 at log[MMV006169] (µM) 0.22, replicates 1-2): -6.54% and 4.81%; 48 - 72 h DMC1 (asexual to sexual conversion): Mean % DMC1 inhibition (normalized to host nuclei) ([3]; B-1 at log[MMV006169] (µM) 0.52, replicates 1-2): -9.41% and 15.73%; 48 - 72 h DMC1 (asexual to sexual conversion): Mean % DMC1 inhibition (normalized to host nuclei) ([3]; B-1 at log[MMV006169] (µM) 0.70, replicates 1-2): -14.15% and 22.48%; 48 - 72 h DMC1 (asexual to sexual conversion): Mean % DMC1 inhibition (normalized to host nuclei) ([3]; B-1 at log[MMV006169] (µM) 1.00, replicates 1-2): 25.47% and 51.27%; 48 - 72 h DMC1 (asexual to sexual conversion): Mean % DMC1 inhibition (normalized to host nuclei) ([3]; B-1 at log[MMV006169] (µM) -0.25, replicates 1-2): 2.94% and -1.61%; 48 - 72 h DMC1 (asexual to sexual conversion): Mean % DMC1 inhibition (normalized to host nuclei) ([3]; B-1 at log[MMV006169] (µM) -0.73, replicates 1-2): 13.51% and -3.18%; 48 - 72 h DMC1 (asexual to sexual conversion): Mean % DMC1 inhibition (normalized to host nuclei) ([3]; B-1 at log[MMV006169] (µM) -1.21, replicates 1-2): 14.75% and -24.05%; 48 - 72 h DMC1 (asexual to sexual conversion): Mean % DMC1 inhibition (normalized to host nuclei) ([3]; B-1 at log[MMV006169] (µM) -1.69, replicates 1-2): 19.37% and -12.74%; 48 - 72 h DMC1 (asexual to sexual conversion): Mean % DMC1 inhibition (normalized to host nuclei) ([3]; B-1 at log[MMV006169] (µM) -2.16, replicates 1-2): 9.35% and -23.05%
CC(=O)Oc1ccccc1C(=O)Nc1ncc([N+](=O)[O-])s1 [Nitazoxanide]	13.83	11	17	-9.16	-33.81	15.50	–	81.79	79.14	81.57	59.72	1.40	1.33	1.77	–	95.07	93.41	–	1.37	1.12	effect on host cell invasion / parasitophorous vacuole formation (C. parvum [1]; result in words): no significant effect on parasitophorous vacuole formation
CC(=NOCCN)c1cccc(C(C)(C)NC(=O)Nc2ccc(Cl)c(C(F)(F)F)c2)c1 [P257]	9.88	4	16	97.76	97.49	98.03	–	70.52	67.08	73.96	–	0.84	1.06	0.97	–	–	–	–	0.68	0.65	–
